Results: ChEMBL document CHEMBL5329213, “Discovery of a novel GPR35 agonist with high and equipotent species potency for oral treatment of IBD” (Bioorg Med Chem, 2023)
One block for each molecule: values may come before it. Calls of active or inactive are those of the source. The rule behind the calls is not given here.

How the values were obtained:
[1] = target: T1, G-protein coupled receptor 35 (Mus musculus, UniProt Q9ES90); assay: Agonist activity at mouse GPR35 expressed in HEK293 cells co-expressing Galpha16 assessed as increase in calcium mobilization by Fluo-4 AM dye based fluorescence assay; format: functional, cell-based
[2] = Agonist activity at rat GPR35 by beta-arrestin recruitment assay
[3] = target: T2, G-protein coupled receptor 35 (Homo sapiens, UniProt Q9HC97); assay: Agonist activity at human GPR35 expressed in HEK293 cells co-expressing Galpha16 assessed as increase in calcium mobilization by Fluo-4 AM dye based fluorescence assay; format: functional, cell-based
[4] = target: G-protein coupled receptor 35 (Mus musculus) (UniProt Q9ES90); assay: Agonist activity at mouse GPR35 expressed in HEK293 cells co-expressing Galpha16 assessed as increase in calcium mobilization by Fluo-4 AM dye based fluorescence assay relative to-iodoxamide; format: functional, cell-based; settings: filed as agonist
[5] = Agonist activity at rat GPR35 expressed in HEK293 cells co-expressing Galpha16 assessed as increase in calcium mobilization by Fluo-4 AM dye based fluorescence assay
[6] = target: T2, G-protein coupled receptor 35; assay: Agonist activity at human GPR35 by beta-arrestin recruitment assay; format: functional
[7] = Stability of the compound in mouse plasma; format: ADME, cell-free
[8] = Stability of the compound in plasma of DSS-induced ulcerative colitis C57BL/6 mouse model at 20 mg/kg, po qd for 7 days administered via gavage; format: ADME, organism-based; settings: in vivo, 168 h, time 7 day
[9] = test system: Mus musculus; assay: Anti-colitis activity against DSS-induced ulcerative colitis C57BL/6 mouse model assessed as reduction in colitis symptoms by measuring decrease in body weight loss at 200 mg/kg, po qd for 7 days administered via gavage; format: functional, organism-based; settings: time 7.0 day
[10] = test system: Mus musculus; assay: Anti-colitis activity against DSS-induced ulcerative colitis C57BL/6 mouse model assessed as reduction in colitis symptoms by measuring decrease in stool thinning at 200 mg/kg, po qd for 7 days administered via gavage; format: functional, organism-based; settings: time 7.0 day
[11] = test system: Mus musculus; assay: Anti-colitis activity against DSS-induced ulcerative colitis C57BL/6 mouse model assessed as reduction in colitis symptoms by measuring decrease in rectal bleeding at 200 mg/kg, po qd for 7 days administered via gavage; format: functional, organism-based; settings: time 7.0 day
[12] = target: T1, G-protein coupled receptor 35; assay: Agonist activity at mouse GPR35 by beta-arrestin recruitment assay; format: functional

T2 sequence (Q9HC97 whole entry): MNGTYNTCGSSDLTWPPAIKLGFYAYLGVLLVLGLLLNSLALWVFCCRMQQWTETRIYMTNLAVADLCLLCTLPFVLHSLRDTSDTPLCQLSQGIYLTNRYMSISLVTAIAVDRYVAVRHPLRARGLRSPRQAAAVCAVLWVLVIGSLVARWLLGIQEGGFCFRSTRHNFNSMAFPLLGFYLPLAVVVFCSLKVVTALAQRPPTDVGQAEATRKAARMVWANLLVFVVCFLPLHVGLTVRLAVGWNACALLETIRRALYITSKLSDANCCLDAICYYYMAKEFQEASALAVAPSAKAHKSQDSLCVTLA
Sequence of G-protein coupled receptor 35 (Mus musculus) (Q9ES90 whole entry): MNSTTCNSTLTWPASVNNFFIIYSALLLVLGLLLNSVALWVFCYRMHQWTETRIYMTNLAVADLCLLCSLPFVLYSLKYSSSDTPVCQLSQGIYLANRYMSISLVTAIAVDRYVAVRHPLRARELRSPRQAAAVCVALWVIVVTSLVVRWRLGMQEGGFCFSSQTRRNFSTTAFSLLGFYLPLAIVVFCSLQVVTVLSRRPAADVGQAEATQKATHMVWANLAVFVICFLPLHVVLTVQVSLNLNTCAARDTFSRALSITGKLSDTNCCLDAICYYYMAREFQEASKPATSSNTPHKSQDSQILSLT
T1 sequence (Q9ES90 whole entry): as above

Structure (SMILES): O=C(Nc1cc(C(F)(F)F)cc(NC(=O)C(=O)OC2CCCCC2)c1Cl)C(=O)OC1CCCCC1
EC50 [1]: 61 nM

Structure (SMILES): COc1ccc(C(=O)Nc2cc(Br)cc3c(=O)cc(C(=O)O)oc23)cc1
EC50 [2]: 1400 nM

Structure (SMILES): N#Cc1cc(NC(=O)C(=O)O)cc(NC(=O)C(=O)O)c1
EC50 [1]: 376 nM

Structure (SMILES): CCCCc1cc2c(=O)cc(C(=O)O)[nH]c2c2c(=O)cc(C(=O)O)[nH]c12 [BUFROLIN]
EC50 [2]: 10 nM

Structure (SMILES): O=C1N/C(=N/c2ccccc2F)S/C1=C\c1ccc(C(=O)O)cc1
EC50 [2]: 8000 nM

Structure (SMILES): O=C(O)C(=O)Nc1cccc(NC(=O)C(=O)O)c1
EC50 [3]: 4250 nM
Emax [4]: 105%
EC50 [1]: 8060 nM

Structure (SMILES): O=C(Nc1cc(C(F)(F)F)cc(NC(=O)C(=O)OC2CCCC2)c1Cl)C(=O)OC1CCCC1
EC50 [3]: 1040 nM
Emax [4]: 91%
EC50 [1]: 126 nM

Structure (SMILES): Nc1ccc(O)c(C(=O)O)c1
Activity [9]: Active
Activity [10]: Active
Activity [11]: Active

Structure (SMILES): O=C(O)c1cc(=O)c2c(OCC(O)COc3cccc4oc(C(=O)O)cc(=O)c34)cccc2o1 [CROMOLYN]
EC50 [2]: 4000 nM
EC50 [6]: 8 µM
EC50 [12]: 58 µM

Structure (SMILES): O=C(O)C(=O)Nc1cc(C(F)(F)F)cc(NC(=O)C(=O)O)c1Cl
EC50 [1]: 55.8 nM

Structure (SMILES): O=C(O)c1cc2ccccc2c(Cc2c(O)c(C(=O)O)cc3ccccc23)c1O [PAMOIC ACID]
EC50 [2]: > 100000 nM

Structure (SMILES): Cc1c(NC(=O)C(=O)O)cc(C(=O)O)cc1NC(=O)C(=O)O
EC50 [1]: > 10000 nM

Structure (SMILES): O=C(O)C(=O)Nc1cc(C(=O)O)cc(NC(=O)C(=O)O)c1Cl
EC50 [3]: 125 nM
Emax [4]: 75%
EC50 [1]: 5300 nM

Structure (SMILES): O=C(Nc1cc(C(F)(F)F)cc(NC(=O)C(=O)OC2CC2)c1Cl)C(=O)OC1CC1
EC50 [3]: 75 nM
Emax [4]: 86%
EC50 [1]: 119 nM

Structure (SMILES): O=C(O)C(=O)Nc1cc(NC(=O)C(=O)O)cc(C(F)(F)F)c1
EC50 [1]: 12.4 nM

Structure (SMILES): CCCOc1ccccc1-c1nc2[nH]nnc2c(=O)[nH]1 [ZAPRINAST]
EC50 [2]: 100 nM
EC50 [12]: 1 µM

Structure (SMILES): Cc1cc(NC(=O)C(=O)O)c(Cl)c(NC(=O)C(=O)O)c1
EC50 [1]: 69.1 nM

Structure (SMILES): O=C(O)C(=O)Nc1cccc(NC(=O)C(=O)O)c1Cl
EC50 [1]: 3640 nM

Structure (SMILES): O=C(O)C(=O)Nc1cc(Br)cc(NC(=O)C(=O)O)c1Cl
EC50 [5]: 34.6 nM
EC50 [3]: 25.8 nM
Emax [4]: 106%
EC50 [1]: 28.1 nM

Further lines, with some results ahead:

EC50 [1]: 3260 nM
Structure (SMILES): CCOC(=O)C(=O)Nc1cccc(NC(=O)C(=O)OCC)c1Cl

EC50 [1]: 3110 nM
Structure (SMILES): COc1c(NC(=O)C(=O)O)cc(C#N)cc1NC(=O)C(=O)O

EC50 [1]: 42.5 nM
Structure (SMILES): CCOC(=O)C(=O)Nc1cc(Br)cc(NC(=O)C(=O)OCC)c1Cl

EC50 [3]: 29.2 nM
Emax [4]: 139%
EC50 [1]: 263 nM
Structure (SMILES): CCOC(=O)C(=O)Nc1cc(C#N)cc(NC(=O)C(=O)OCC)c1Cl [LODOXAMIDE ETHYL]

EC50 [5]: 21.5 nM
EC50 [2]: 13 nM
EC50 [3]: 41.1 nM
EC50 [6]: 0.004 µM
EC50 [1]: 422 nM
Structure (SMILES): N#Cc1cc(NC(=O)C(=O)O)c(Cl)c(NC(=O)C(=O)O)c1 [LODOXAMIDE]

Stability [7]: Unstable
EC50 [1]: 63.7 nM
Structure (SMILES): CCOC(=O)C(=O)Nc1cc(C(F)(F)F)cc(NC(=O)C(=O)OCC)c1Cl
Stability [8]: Unstable

EC50 [1]: 9160 nM
Structure (SMILES): CN(C)c1c(NC(=O)C(=O)O)cc(C#N)cc1NC(=O)C(=O)O

EC50 [1]: 27.2 nM
Structure (SMILES): COC(=O)C(=O)Nc1cc(C(F)(F)F)cc(NC(=O)C(=O)OC)c1Cl

EC50 [1]: 20.9 nM
Structure (SMILES): CCOC(=O)C(=O)Nc1cc(C(=O)OCC(C)C)cc(NC(=O)C(=O)OCC)c1Cl
